The results in this text go back to ChEMBL document CHEMBL1201862, “PubChem BioAssay data set” (2004).

Calls of active or inactive are those of the source. No stated cut-off is given here; in the data, actives have a measured IC50 and inactives only a lower limit.

For orientation: IC50 means the concentration needed to halve the response being measured.

Envelope glycoprotein gp160, sequence (Q6QLK5 whole entry, the tested form may be a part): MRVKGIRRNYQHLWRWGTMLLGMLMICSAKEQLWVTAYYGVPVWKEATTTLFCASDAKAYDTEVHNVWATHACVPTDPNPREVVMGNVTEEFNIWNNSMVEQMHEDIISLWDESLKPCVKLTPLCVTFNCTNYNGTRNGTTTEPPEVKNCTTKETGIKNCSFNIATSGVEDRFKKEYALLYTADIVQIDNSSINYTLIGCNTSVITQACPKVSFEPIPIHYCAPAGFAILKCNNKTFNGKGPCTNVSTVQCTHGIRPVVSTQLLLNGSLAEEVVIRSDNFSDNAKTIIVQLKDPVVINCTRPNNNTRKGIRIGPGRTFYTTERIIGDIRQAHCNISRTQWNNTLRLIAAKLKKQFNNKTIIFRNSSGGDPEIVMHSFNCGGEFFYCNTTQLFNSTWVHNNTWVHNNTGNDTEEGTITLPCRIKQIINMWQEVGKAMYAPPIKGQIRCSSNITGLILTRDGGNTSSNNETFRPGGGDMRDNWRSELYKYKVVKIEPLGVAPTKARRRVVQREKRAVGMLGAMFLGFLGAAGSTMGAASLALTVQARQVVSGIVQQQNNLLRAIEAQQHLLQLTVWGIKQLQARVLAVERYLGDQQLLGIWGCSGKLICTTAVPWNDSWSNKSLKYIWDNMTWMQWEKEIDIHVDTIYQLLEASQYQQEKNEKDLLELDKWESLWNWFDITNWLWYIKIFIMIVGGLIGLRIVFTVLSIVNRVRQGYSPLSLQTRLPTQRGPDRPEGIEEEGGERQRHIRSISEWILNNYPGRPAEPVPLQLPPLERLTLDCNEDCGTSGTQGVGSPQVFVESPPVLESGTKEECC

The test concerns the target Envelope glycoprotein gp160 (Human immunodeficiency virus 1, UniProt Q6QLK5). The test can be described thus: cell-free HIV fusion peptide-binding blockers – biochemical, uHTS, fluorescence dequenching, […] (AID 1986).
In the case of `COc1ccc(C(=O)COC(=O)c2ccccc2NS(=O)(=O)c2ccc(O)c([N+](=O)[O-])c2)cc1`, the IC50 was 16.4 µM (active). For `CCOc1cc(/C=C2/C(=N)N3C(=NC2=O)SN=C3S(=O)(=O)C(C)C)ccc1OC(=O)c1ccco1` the value was 14.8 µM (active). As for `Brc1ccc(N/N=C(/N=Nc2nn[nH]n2)c2ccccc2)cc1`, the IC50 was 29.5 µM (active).

As to `CCc1nnc(NS(=O)(=O)c2ccc(NC(=O)/C=C/c3ccccc3Cl)cc2)s1`, the IC50 was 23.7 µM (active). Under `N=C1/C(=C\c2ccc(-c3cccc(C(=O)O)c3)o2)C(=O)N=C2SC=C(c3ccccc3)N12` stands 6.64 µM (active); under `Cc1noc(NS(=O)(=O)c2ccc(NC(=O)Nc3ccc(Cl)c(Cl)c3)cc2)c1C`, 19.8 µM (active). Under `CC(C)S(=O)(=O)C1=NSC2=NC(=O)/C(=C\c3ccc(OC(=O)c4ccco4)cc3)C(=N)N21` stands 26.7 µM (active). For `O=C(O)c1cc(NC(=O)c2ccc(Br)cc2)cc(NC(=O)c2ccc(Br)cc2)c1` the value was 29.4 µM (active).
